Source: patent publication US20060153785A1, “Moisturizers comprising one or more of gamma-polyglutamic acid (gamma-PGA, H form), gamma-polyglutamates and gamma-polyglutamate hydrogels for use in cosmetic or personal care products” (priority 2005, published 2006)
Blank lines part the entries; values can stand above or below the compound they belong to.

Key:
[1] = test system: outside skin surface of the arm of a test panelist; assay: Moisture retention of skin after peeling off facial moisture mask (capacitance, SHP88); type: in vivo, human (panelists); conditions: 5.0% moisturizer in facial moisture mask; mask film peeled off after 15 minutes; 23° C., RH 65%
Method: The species and proportions of the ingredients contained in the exemplified facial moisture mask formulation are listed in Table 5.
The samples of 0.2 grams from experimental example 4 were taken and evenly spread over an area of 25 cm^2 on the outside skin surface of the arm of a test panelist, and the film formation time was closely observed and recorded (see Characteristic Properties of N-Carboxybutyl Chitosan. Carbohydr. Polym. 11:307-320, 1989, Muzzarelli, R. A. A. et al.) at 23° C. under an environment of relative humidity (RH) of 65%. A group of 10 panelists participated in this test. In a separate experiment, the mask film formed after 15 minutes was peeled off, then the […] of the skin was measured at 23° C. under an environment of relative humidity of 65% with a probe of the Skin Analysis SHP88 of Courage ^+Khazaka Electronic Gmbh, Germany. The moisture retention of the skin was immediately measured at 23° C. under an environment of relative humidity of 65% with a probe of the Skin Analysis SHP88, and expressed in unit of capacitance increase ratio, %.

[2] = test system: tyrosinase; assay: Inhibition of tyrosinase activity (absorbency at 475 nm); type: biochemical; conditions: 1.0% sample
Method: Although the formation of black pigment melanin on skin is complicated, it is generally realized that tyrosine is oxidized to DOPA (Dihydroxy Phenyalanine) by the catalysis of tyrosinase from melansome of melanocyte. The DOPA is further oxidized and finally converted into colored melanin-protein complex. […] Determination of total absorbency at wavelength of 475 nm: To a 25 ml sample test tube, add 0.9 ml of 0.1M phosphate buffer solution (pH 6.8), 1 ml of γ-polyglutamate (Na^+ form) sample and 1 ml of 0.25 mg/ml tyrosine solution and mix well, then incubate at 37° C. for 10 minutes. […] Sample of the reaction solution is then taken for measuring the absorbency at 475 nm, and recorded as At. • b. Determination of the blank absorbance of tyrosinase solutuion: Replace 0.1 ml of buffer solution with tyrosinase solution, and repeat the same procedure in item (a), and record the absorbency at 475 nm as A1. • c. Replace 1 ml sample solution with buffer solution, and repeat the same procedure in item (a), and record the absorbance at 475 nm as Ab. • d. Determination of total blank absorbance of test solution: Replace 1 ml sample solution with buffer solution, and 0.1 ml of tyrosinase solution with buffer solution, and repeat the procedure in item (a), and record the absorbency at 475 nm as Ao. • e. […]

[3] = test system: inside skin surface of a test panelist's arm; assay: Water retention on skin after skin vital moisture cream (capacitance, Skin Analysis SHP88); type: in vivo, human (panelists); conditions: 5% moisturizer in cream

SMILES: CC(O)CCO (stereo not shown) [1,3-BG, 1,3-Butyl Glycol]
- Capacitance Increase Ratio [1]: 73.2%

- Inhibition of Tyrosinase Activity [2]: 100.0%
SMILES: O=c1cc(CO)occ1O [Kojic Acid]

SMILES: CC(O)CO (stereo not shown) [Propylene Glycol]
- Capacitance Increase Ratio ([3]; time 0 min): 0%
- Capacitance Increase Ratio ([3]; time 5 min): 105%
- Capacitance Increase Ratio ([3]; time 10 min): 57%
- Capacitance Increase Ratio ([3]; time 20 min): 51%
- Capacitance Increase Ratio ([3]; time 40 min): 40%
- Capacitance Increase Ratio ([3]; time 80 min): 38%
- Capacitance Increase Ratio ([3]; time 120 min): 36%

- Inhibition of Tyrosinase Activity [2]: 99.4%
SMILES: O=C1O[C@H]([C@@H](O)CO)C(O)=C1O [Vitamin C]
